Assay results taken from patent US20240158446A1, “CYCLIC COMPOUND HAVING SELECTIVE INHIBITORY ACTION ON KRAS OVER HRAS AND NRAS” (CHUGAI SEIYAKU KABUSHIKI KAISHA, priority 2021, published 2024).
Where two headings read alike, the source gives them in different places. Where a SMILES comes first, the peptide text is derived from it. Bridges are numbered along the chain shown (N, C = ends). [ ]: non-standard residue; d: D form. The star is where a group is joined. hPhe(3-Cl-4-CF3) = N[C@@H](CCc1ccc(C(F)(F)F)c(Cl)c1)C(=O)O; NPrPhe(4-CF3) = CCCN[C@@H](Cc1ccc(C(F)(F)F)cc1)C(=O)O; NMeGly(cPent) = CN[C@H](C(=O)O)C1CCCC1; NMeD = CN[C@@H](CC(=O)O)C(=O)O; NMeL = CN[C@@H](CC(C)C)C(=O)O; Morpholide = C1CN(*)CCO1; Ac4c = NC1(C(=O)O)CCC1; NEtG = CCNCC(=O)O; Sar = CNCC(=O)O

Legend:
[1] = system: human lung cancer strain NCI-H441;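 also: cell proliferation inhibition after four days measured by CellTiter-Glo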
[2] = target: GDP-bound KRAS wild-type protein (Homo sapiens, UniProt P01116); assay: Binding to KRAS by surface plasmon resonance (SPR), Single Cycle Kinetics; conditions: GDP-bound KRAS wild-type protein, read-out: KRAS KD
Chain of GDP-bound KRAS wild-type protein (P01116 whole entry): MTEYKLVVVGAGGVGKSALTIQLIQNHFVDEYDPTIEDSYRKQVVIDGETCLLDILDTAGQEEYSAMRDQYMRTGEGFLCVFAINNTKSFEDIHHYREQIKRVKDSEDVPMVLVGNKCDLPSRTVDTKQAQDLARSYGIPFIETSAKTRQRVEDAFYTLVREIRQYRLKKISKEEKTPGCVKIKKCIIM

[3] = target: GDP-bound HRAS wild-type protein (Homo sapiens, UniProt P01112); assay: Binding to HRAS by surface plasmon resonance (SPR), Single Cycle Kinetics; conditions: for HRAS/KRAS (ratio of KD value for HRAS to KD value for KRAS): SPR, GDP-bound HRAS wild-type protein vs GDP-bound KRAS wild-type protein; for HRAS/KRAS (ratio of KD value with respect to GDP-bound HRAS wild-type protein to KD value with respect to KRAS): SPR KD ratio HRAS/KRAS, class symbols
Chain of GDP-bound HRAS wild-type protein (P01112 whole entry): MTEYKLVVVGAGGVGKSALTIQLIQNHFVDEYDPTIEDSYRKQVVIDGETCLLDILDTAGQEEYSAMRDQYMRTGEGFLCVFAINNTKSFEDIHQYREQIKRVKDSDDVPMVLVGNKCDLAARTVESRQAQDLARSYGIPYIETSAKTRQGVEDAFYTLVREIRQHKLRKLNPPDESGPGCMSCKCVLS

[4] = target: GDP-bound NRAS wild-type protein (Homo sapiens, UniProt P01111); assay: Binding to NRAS by surface plasmon resonance (SPR), Single Cycle Kinetics; conditions: for NRAS/KRAS (ratio of KD value for NRAS to KD value for KRAS): SPR, GDP-bound NRAS wild-type protein vs GDP-bound KRAS wild-type protein; for NRAS/KRAS (ratio of KD value with respect to GDP-bound NRAS wild-type protein to KD value with respect to KRAS): SPR KD ratio NRAS/KRAS, class symbols
Chain of GDP-bound NRAS wild-type protein (P01111 whole entry): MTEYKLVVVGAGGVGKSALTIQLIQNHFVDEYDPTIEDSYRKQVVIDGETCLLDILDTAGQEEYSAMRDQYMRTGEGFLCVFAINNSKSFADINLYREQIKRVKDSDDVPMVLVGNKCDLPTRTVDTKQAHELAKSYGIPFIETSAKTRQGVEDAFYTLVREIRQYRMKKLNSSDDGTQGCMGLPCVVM

[5] = SPR Single Cycle Kinetics, 1:1 binding model
[6] = SPR, Single Cycle Kinetics, 1:1 binding model

Row | Compound | IC50 [1] [nM] | Kd [2, 5] [nM] | Kd ([2]; SPR, Single Cycle Kinetics) [nM] | Kd [2, 6] [nM] | HRAS/KRAS (ratio of KD value for HRAS to KD value for KRAS) [3] | NRAS/KRAS (ratio of KD value for NRAS to KD value for KRAS) [4] | HRAS/KRAS (ratio of KD value for HRAS to KD value for KRAS) ([3]; KD ratio class) | NRAS/KRAS (ratio of KD value for NRAS to KD value for KRAS) ([4]; KD ratio class) | HRAS/KRAS (ratio of KD value with respect to GDP-bound HRAS wild-type protein to KD value with respect to KRAS) [3] | NRAS/KRAS (ratio of KD value with respect to GDP-bound NRAS wild-type protein to KD value with respect to KRAS) [4]
1 | CCCN1C(=O)CN(C)C(=O)CN(CC)C(=O)[C@H]([C@@H](C)CC)NC(=O)[C@H](CC(C)C)N(C)C(=O)C[C@@H](C(=O)N2CCOCC2)N(C)C(=O)[C@H](C2CCCC2)N(C)C(=O)C2(CCC2)NC(=O)[C@@H]2CCCN2C(=O)[C@H](CCc2ccc(C(F)(F)F)c(Cl)c2)NC(=O)CN(C)C(=O)[C@@H]1Cc1ccc(C(F)(F)F)cc1 [PP0398] ([NMeL]I[NEtG][Sar][NPrPhe(4-CF3)][Sar][hPhe(3-Cl-4-CF3)]P[Ac4c][NMeGly(cPent)][NMeD]-Morpholide; lactam N-11) | 3.6 | 0.48 | – | – | C (A compound having a KD ratio of 0.1 or more and less than 3 is denoted as C) | B (a compound having 3 or more and less than 10 is denoted as B) | – | – | – | –
2 | CCOC[C@H]1C(=O)N[C@@H]([C@@H](C)CC)C(=O)N(C)CC(=O)N(C)[C@H]2C/C=C\CCN(C2=O)[C@@H](CC2CCCCC2)C(=O)N(C)CC(=O)N[C@@H](CCc2ccc(C(F)(F)F)c(OC)c2)C(=O)N2C[C@@H](C)C[C@H]2C(=O)N(C)C2(CCC2)C(=O)N(C)[C@@H](C2CCCC2)C(=O)N(C)[C@H](C(=O)N(C)C)CC(=O)N1C [PP2371] | 41.9 | – | 0.64 | – | B (a compound having 3 or more and less than 10 is denoted as B) | A (a compound having 10 or more and less than 20 is denoted as A) | – | – | – | –
3 | CCCCCC[C@H]1C(=O)N[C@@H]([C@@H](C)CC)C(=O)N(C)CC(=O)N(C)[C@H]2C/C=C\CCN(C2=O)[C@@H](Cc2ccc(C(F)(F)F)cc2)C(=O)N(C)CC(=O)N[C@@H](CCc2ccc(C(F)(F)F)c(OC)c2)C(=O)N2C[C@H](OCC)C[C@H]2C(=O)NC2(CCC2)C(=O)N(C)[C@@H](C2CCCC2)C(=O)N(C)[C@H](C(=O)N(C)C)CC(=O)N1C [PP1246, (2S,8S,12R,14S,20S,23S,27S,30S,36S,38Z)-20-cyclopentyl-12-ethoxy-27-hexyl-8-[2-[3-methoxy-4-(trifluoromethyl)phenyl]ethyl]-N,N,4,19,22,26,32,35-octamethyl-30-[(1S)-1-methylpropyl]-3,6,9,15,18,21,25,28,31,34,42-undecaoxo-2-[[4-(trifluoromethyl)phenyl]methyl]spiro[1,4,7,10,16,19,22,26,29,32,35-undecazatricyclo[34.5.1.0^10,14]dotetracont-38-ene-17,1′-cyclobutane]-23-carboxamide] | 9 | – | – | 0.081 | – | – | A (a compound having 10 or more and less than 20 is denoted as A) | A (a compound having 10 or more and less than 20 is denoted as A) | – | –
4 | CCC[C@H]1C(=O)N[C@@H]([C@@H](C)CC)C(=O)N(C)CC(=O)N(C)[C@H]2C/C=C\CCN(C2=O)[C@@H](Cc2ccc(C(F)(F)F)cc2)C(=O)N(C)CC(=O)N[C@@H](CCc2ccc(C(F)(F)F)c(OC)c2)C(=O)N2C[C@H](OCC)C[C@H]2C(=O)NC2(CC(C)(C)C2)C(=O)N(C)[C@@H](CC(C)(C)C)C(=O)N(C)[C@H](C(=O)N(C)C)CC(=O)N1C [PP2734] | 3.1 | 0.1 | – | – | – | – | – | – | B (a compound having 3 or more and less than 10 is denoted as B) | A (a compound having 10 or more and less than 20 is denoted as A)
5 | CC[C@H](C)[C@@H]1NC(=O)[C@H](CC)N(C)C(=O)C[C@@H](C(=O)N2CCOCC2)N(C)C(=O)[C@H](C2CCCC2)N(C)C(=O)C2(CCCC2)NC(=O)[C@@H]2CCCN2C(=O)[C@H](CCc2cc(F)c(C(F)(F)F)c(F)c2)NC(=O)CN(C)C(=O)[C@H](Cc2ccc(C(F)(F)F)cc2)N2C[C@H](C)[C@H](C)C[C@@H](C2=O)N(C)C(=O)CN(C)C1=O [PP1365] | 4.2 | – | – | 0.13 | – | – | B (a compound having 3 or more and less than 10 is denoted as B) | A (a compound having 10 or more and less than 20 is denoted as A) | – | –
6 | CCC(CC)[C@H]1C(=O)N(C)[C@H](C(=O)N(C)C)CC(=O)N(C)[C@@H](COC)C(=O)N[C@@H]([C@@H](C)CC)C(=O)N2CCC[C@H]2C(=O)N(C)[C@H]2C/C=C\CCN(C2=O)[C@@H](Cc2ccc(C(F)(F)F)cc2)C(=O)N(C)CC(=O)N[C@@H](CCc2ccc(Cl)c(Cl)c2)C(=O)N2C[C@H](OC(C)C)C[C@H]2C(=O)NC2(CC(C)(C)C2)C(=O)N1C [PP2639] | 81.6 | 1.1 | – | – | – | – | – | – | A (a compound having 10 or more and less than 20 is denoted as A) | AA (a compound having 20 or more is denoted as AA)

Continued, in another order:

Row | IC50 [1] [nM] | Kd [2, 5] [nM] | Kd ([2]; SPR, Single Cycle Kinetics) [nM] | Kd [2, 6] [nM] | Compound | HRAS/KRAS (ratio of KD value for HRAS to KD value for KRAS) [3] | NRAS/KRAS (ratio of KD value for NRAS to KD value for KRAS) [4] | HRAS/KRAS (ratio of KD value for HRAS to KD value for KRAS) ([3]; KD ratio class) | NRAS/KRAS (ratio of KD value for NRAS to KD value for KRAS) ([4]; KD ratio class) | HRAS/KRAS (ratio of KD value with respect to GDP-bound HRAS wild-type protein to KD value with respect to KRAS) [3] | NRAS/KRAS (ratio of KD value with respect to GDP-bound NRAS wild-type protein to KD value with respect to KRAS) [4]
7 | 39.6 | – | 1.8 | – | CCC(CC)[C@H]1C(=O)N(C)[C@H](C(=O)N(C)C)CC(=O)N(C)[C@@H](CC2CC2)C(=O)N[C@@H]([C@@H](C)CC)C(=O)N(C)CC(=O)N(C)[C@H]2C/C=C\CCN(C2=O)[C@@H](CC2CCC(F)(F)CC2)C(=O)N(C)CC(=O)N[C@@H](CCc2ccc(C(F)(F)F)c(OC)c2)C(=O)N2C[C@@H](C)C[C@H]2C(=O)NC2(CC(C)(C)C2)C(=O)N1C [PP2494] | A (a compound having 10 or more and less than 20 is denoted as A) | A (a compound having 10 or more and less than 20 is denoted as A) | – | – | – | –
8 | 85.2 | – | 1 | – | CCO[C@@H]1C[C@H]2C(=O)NC3(CCC3)C(=O)N(C)[C@@H](C3CCCC3)C(=O)N(C)[C@H](C(=O)N(C)C)CC(=O)N(C)[C@@H](Cc3ccc(Cl)c(Cl)c3)C(=O)N[C@@H]([C@@H](C)CC)C(=O)N(C)CC(=O)N(C)[C@H]3CCCCCN(C3=O)[C@@H](Cc3ccc(C(F)(F)F)cc3)C(=O)N(C)CC(=O)N[C@@H](CCc3cc(F)c(C(F)(F)F)c(F)c3)C(=O)N2C1 [PP1174] | B (a compound having 3 or more and less than 10 is denoted as B) | B (a compound having 3 or more and less than 10 is denoted as B) | – | – | – | –
9 | 75.5 | – | 0.29 | – | CCO[C@@H]1C[C@H]2C(=O)NC3(CCC3)C(=O)N(C)[C@@H](C3CCCC3)C(=O)N(C)[C@H](C(=O)N3CCOCC3)CC(=O)N(C)[C@@H](CC(C)C)C(=O)N[C@@H]([C@@H](C)CC)C(=O)N(C)CC(=O)N(C)[C@H]3CCCCCN(C3=O)[C@@H](Cc3ccc4sccc4c3)C(=O)N(C)CC(=O)N[C@@H](CCc3cc(F)c(C(F)(F)F)c(F)c3)C(=O)N2C1 [PP0920] | B (a compound having 3 or more and less than 10 is denoted as B) | B (a compound having 3 or more and less than 10 is denoted as B) | – | – | – | –
10 | 102 | – | – | 0.34 | CCO[C@@H]1C[C@H]2C(=O)NC3(CCC3)C(=O)N(C)[C@@H](C3CCCC3)C(=O)N(C)[C@H](C(=O)N(C)C)CC(=O)N(C)[C@@H](CC3CC3)C(=O)N[C@@H]([C@@H](C)CC)C(=O)N(C)CC(=O)N(C)[C@H]3C/C=C\CCN(C3=O)[C@@H](Cc3ccc(F)cc3)C(=O)N(C)CC(=O)N[C@@H](CCc3ccc(Cl)c(Cl)c3)C(=O)N2C1 [PP1478] | – | – | A (a compound having 10 or more and less than 20 is denoted as A) | A (a compound having 10 or more and less than 20 is denoted as A) | – | –
11 | 6.2 | – | – | 0.15 | CCO[C@@H]1C[C@H]2C(=O)NC3(CCC3)C(=O)N(C)[C@@H](C3CCCC3)C(=O)N(C)[C@H](C(=O)N3CCOCC3)CC(=O)N(C)[C@@H](CC(C)C)C(=O)N[C@@H]([C@@H](C)CC)C(=O)N3CC[C@H]3C(=O)N(C)[C@H]3C[C@@H](C)[C@@H](C)CN(C3=O)[C@@H](Cc3ccc(C(F)(F)F)cc3)C(=O)N(C)CC(=O)N[C@@H](CCc3ccc(C(F)(F)F)c(Cl)c3)C(=O)N2C1 [PP1361] | – | – | B (a compound having 3 or more and less than 10 is denoted as B) | A (a compound having 10 or more and less than 20 is denoted as A) | – | –
12 | 112 | – | – | 0.69 | CCO[C@@H]1C[C@H]2C(=O)NC3(CCC3)C(=O)N(C)[C@@H](C(CC)CC)C(=O)N(C)[C@H](C(=O)N3CCCC3)CC(=O)N(C)[C@@H](C)C(=O)N[C@@H]([C@@H](C)CC)C(=O)N(C)CC(=O)N(C)[C@H]3C/C=C\CCN(C3=O)[C@@H](CC3CCCCC3)C(=O)N(C)CC(=O)N[C@@H](CCc3cc(F)c(C(F)(F)F)c(F)c3)C(=O)N2C1 [PP1434] | – | – | A (a compound having 10 or more and less than 20 is denoted as A) | A (a compound having 10 or more and less than 20 is denoted as A) | – | –
13 | 18.9 | – | – | 0.23 | CCO[C@@H]1C[C@H]2C(=O)NC3(CCC3)C(=O)N(C)[C@@H](C3CCCC3)C(=O)N(C)[C@H](C(=O)N(C)C)CC(=O)N(C)[C@@H](CC(C)C)C(=O)N[C@@H]([C@@H](C)CC)C(=O)N(C)CC(=O)N(C)[C@H]3C/C=C\CCN(C3=O)[C@@H](Cc3ccc(C(F)(F)F)cc3)C(=O)N(C)CC(=O)N[C@@H](CCc3cc(F)c(Cl)c(F)c3)C(=O)N2C1 [PP1263] | – | – | A (a compound having 10 or more and less than 20 is denoted as A) | A (a compound having 10 or more and less than 20 is denoted as A) | – | –
